Assay results from ChEMBL document CHEMBL1201862, “PubChem BioAssay data set” (2004).
Active and inactive are the calls of the source.

Tests used:
[1] = biological target: T1, Histone-lysine N-methyltransferase NSD2 (Homo sapiens, UniProt O96028); assay type: biochemical
T1 sequence (O96028 whole entry): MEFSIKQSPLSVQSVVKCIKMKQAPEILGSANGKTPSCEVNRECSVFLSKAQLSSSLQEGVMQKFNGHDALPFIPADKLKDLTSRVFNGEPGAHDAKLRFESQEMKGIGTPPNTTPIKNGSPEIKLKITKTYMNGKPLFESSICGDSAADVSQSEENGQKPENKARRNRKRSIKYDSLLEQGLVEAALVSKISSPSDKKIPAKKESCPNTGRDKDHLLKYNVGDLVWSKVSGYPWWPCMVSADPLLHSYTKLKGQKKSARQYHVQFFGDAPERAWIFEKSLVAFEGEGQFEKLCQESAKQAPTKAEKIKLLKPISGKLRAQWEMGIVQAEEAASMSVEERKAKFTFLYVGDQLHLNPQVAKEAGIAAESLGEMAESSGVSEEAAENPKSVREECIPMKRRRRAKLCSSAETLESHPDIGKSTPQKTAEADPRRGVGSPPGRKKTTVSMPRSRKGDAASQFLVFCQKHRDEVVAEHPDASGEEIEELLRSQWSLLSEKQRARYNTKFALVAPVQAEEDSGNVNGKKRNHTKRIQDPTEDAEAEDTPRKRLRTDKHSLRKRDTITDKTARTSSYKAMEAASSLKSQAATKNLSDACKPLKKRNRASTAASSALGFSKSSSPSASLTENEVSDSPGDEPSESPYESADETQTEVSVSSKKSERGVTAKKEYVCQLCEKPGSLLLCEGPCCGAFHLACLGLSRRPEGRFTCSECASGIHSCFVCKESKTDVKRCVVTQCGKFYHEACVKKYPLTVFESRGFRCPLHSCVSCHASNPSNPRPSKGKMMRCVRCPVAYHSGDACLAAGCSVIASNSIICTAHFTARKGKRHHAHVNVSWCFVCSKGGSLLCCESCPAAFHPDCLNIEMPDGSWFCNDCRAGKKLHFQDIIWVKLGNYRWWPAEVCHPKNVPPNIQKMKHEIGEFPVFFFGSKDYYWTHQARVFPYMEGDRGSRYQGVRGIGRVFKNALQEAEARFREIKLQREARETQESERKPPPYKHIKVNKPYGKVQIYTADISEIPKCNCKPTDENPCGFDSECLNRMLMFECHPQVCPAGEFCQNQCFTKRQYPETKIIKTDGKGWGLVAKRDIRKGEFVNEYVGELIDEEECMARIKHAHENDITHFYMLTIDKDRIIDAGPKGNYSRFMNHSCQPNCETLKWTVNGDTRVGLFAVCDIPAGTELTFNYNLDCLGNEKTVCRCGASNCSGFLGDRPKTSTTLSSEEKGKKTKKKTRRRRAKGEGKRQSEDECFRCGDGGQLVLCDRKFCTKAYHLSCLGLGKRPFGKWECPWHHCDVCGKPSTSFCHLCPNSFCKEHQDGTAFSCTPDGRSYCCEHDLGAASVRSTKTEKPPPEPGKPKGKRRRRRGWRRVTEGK

[2] = biological target: T2, Oxysterols receptor LXR-beta (Homo sapiens, UniProt P55055); assay type: functional, cell-based
T2 sequence (P55055 whole entry): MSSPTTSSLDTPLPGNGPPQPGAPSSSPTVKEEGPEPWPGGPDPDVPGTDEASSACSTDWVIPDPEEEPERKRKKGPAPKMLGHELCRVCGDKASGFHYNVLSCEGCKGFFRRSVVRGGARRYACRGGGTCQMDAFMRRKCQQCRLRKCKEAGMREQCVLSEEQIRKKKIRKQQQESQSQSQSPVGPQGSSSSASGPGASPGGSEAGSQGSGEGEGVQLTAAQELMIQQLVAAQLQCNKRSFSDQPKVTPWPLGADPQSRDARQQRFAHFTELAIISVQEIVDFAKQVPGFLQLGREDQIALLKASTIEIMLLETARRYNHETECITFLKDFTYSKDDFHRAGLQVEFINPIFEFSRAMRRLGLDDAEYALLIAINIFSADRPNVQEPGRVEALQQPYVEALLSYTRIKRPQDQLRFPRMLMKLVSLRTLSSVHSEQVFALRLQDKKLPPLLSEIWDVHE

[3] = inhibitors of intracellular T. cruzi replication, confirmation, NIH3T3 host cells, beta-gal luminescence (AID 2044); assay type: functional, cell-based;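 also: intracellular parasites grown in NIH/3T3 mouse fibroblasts as host cells; luminescent beta-galactosidase reporter signal from transgenic T. cruzi replicating inside host cells; inhibitors lower the luminescence signal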
Vero = assay: cells; assay type: functional; details: Chlorocebus sabaeus
Streptococcus = assay: Group A Streptococcus viability loss, dose response, counter-screen for streptokinase expression inhibitor project, luminescence, BacTiterGlo (AID 1915); assay type: functional, organism-based;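 also: potency for reduction of bacterial viability or growth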
[4] = system: Streptococcus sp. 'group A'; assay: growth inhibition of control SK(-) GAS strain, dose response, counter-screen for streptokinase expression inhibitor project, luminescence, kanamycin, BacTiterGlo, confirmation (AID 1900); assay type: functional, organism-based
[5] = human group III sPLA2 inhibitors, dose response, biochemical, QFRET, IC50 (AID 743457);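 also: green fluorescence rise as the enzyme cleaves BODIPY PC-A2 in liposomes; potency for inhibition of the enzyme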
[6] = biological target: T2, Oxysterols receptor LXR-beta; assay: LXR agonists, Gal4 luciferase reporter, dose response, counter-screen for ssDAF-12 agonist project, cell-based, luminescence, HEK293, S. stercoralis campaign (AID 720737); assay type: functional; details: read-out: IC50 (the source's name)
[7] = cytotoxicity toward NIH3T3 fibroblasts, dose response, counter-screen, cell-based, ATP luminescence, mouse fibroblasts (AID 2010); assay type: functional;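 also: cells exposed to compound for about 90 hours before reading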
[8] = Luminescence-based cell-based high throughput dose response assay to identify activators of the DAF-12 from the parasite S. stercoralis (ssDAF-12).; assay type: functional
Large T antigen = Large T antigen (Simian virus 40, UniProt P03070); assay type: functional, Betapolyomavirus macacae;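 also: Confirmatory-stage PubChem screen for compounds that inhibit SV40 T antigen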
Sequence of Large T antigen (P03070 whole entry): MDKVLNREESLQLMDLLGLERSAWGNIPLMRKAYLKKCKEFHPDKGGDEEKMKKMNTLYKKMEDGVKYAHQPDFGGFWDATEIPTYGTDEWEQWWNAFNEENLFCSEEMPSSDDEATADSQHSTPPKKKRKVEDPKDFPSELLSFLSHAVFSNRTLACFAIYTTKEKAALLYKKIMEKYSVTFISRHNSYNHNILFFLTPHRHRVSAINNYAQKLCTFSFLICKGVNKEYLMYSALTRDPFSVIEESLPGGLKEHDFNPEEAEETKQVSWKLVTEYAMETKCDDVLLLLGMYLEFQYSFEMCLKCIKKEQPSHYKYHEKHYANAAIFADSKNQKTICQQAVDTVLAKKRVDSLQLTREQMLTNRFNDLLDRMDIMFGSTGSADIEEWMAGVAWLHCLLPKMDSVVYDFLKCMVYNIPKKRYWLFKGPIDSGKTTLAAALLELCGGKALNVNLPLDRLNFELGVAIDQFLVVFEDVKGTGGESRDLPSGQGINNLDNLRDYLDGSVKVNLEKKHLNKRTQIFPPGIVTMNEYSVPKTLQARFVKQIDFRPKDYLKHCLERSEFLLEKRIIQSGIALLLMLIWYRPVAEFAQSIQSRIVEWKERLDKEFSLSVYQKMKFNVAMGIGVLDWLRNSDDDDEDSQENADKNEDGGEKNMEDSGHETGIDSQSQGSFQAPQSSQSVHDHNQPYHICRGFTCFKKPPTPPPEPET

[9] = biological target: T2, Oxysterols receptor LXR-beta; assay type: functional, cell-based; remark: listed apart in the source
H9c2 = assay: cells; assay type: functional, cell-based; details: Rattus norvegicus, H9c2, Myocardium;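 also: confirmatory concentration-response retest of ultra-high-throughput screening hits for modulation of myocardial damage; cell death induced by hydrogen peroxide oxidative stress; compound pretreatment for 60 min then peroxide exposure for 2 h; potency is for protecting the cells against peroxide damage rather than for killing them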
[10] = biological target: T3, Mannose-6-phosphate isomerase (Homo sapiens, UniProt P34949); assay: human PMI inhibitors, high substrate, primary screen, biochemical, fluorescence intensity, high mannose 6-phosphate (AID 1220)
T3 sequence (P34949 whole entry): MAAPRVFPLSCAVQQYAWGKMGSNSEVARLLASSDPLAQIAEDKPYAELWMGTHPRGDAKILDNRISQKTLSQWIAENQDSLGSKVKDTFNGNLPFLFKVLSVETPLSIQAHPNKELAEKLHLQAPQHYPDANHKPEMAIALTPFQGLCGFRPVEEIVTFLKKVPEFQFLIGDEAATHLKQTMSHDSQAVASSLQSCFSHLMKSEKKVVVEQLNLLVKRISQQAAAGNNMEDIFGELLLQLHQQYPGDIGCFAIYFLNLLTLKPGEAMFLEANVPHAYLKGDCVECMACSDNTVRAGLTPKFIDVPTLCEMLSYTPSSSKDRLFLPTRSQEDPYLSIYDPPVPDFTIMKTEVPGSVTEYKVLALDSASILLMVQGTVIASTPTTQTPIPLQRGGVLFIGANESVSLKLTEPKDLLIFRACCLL

[11] = biological target: T4, Rac GTPase-activating protein 1 (Homo sapiens, UniProt Q9H0H5); assay: MgcRacGAP GTPase-activating activity inhibitors, confirmation, biochemical, ADP Hunter fluorescence, primary and confirmatory (AID 624330); assay type: functional
T4 sequence (Q9H0H5 whole entry): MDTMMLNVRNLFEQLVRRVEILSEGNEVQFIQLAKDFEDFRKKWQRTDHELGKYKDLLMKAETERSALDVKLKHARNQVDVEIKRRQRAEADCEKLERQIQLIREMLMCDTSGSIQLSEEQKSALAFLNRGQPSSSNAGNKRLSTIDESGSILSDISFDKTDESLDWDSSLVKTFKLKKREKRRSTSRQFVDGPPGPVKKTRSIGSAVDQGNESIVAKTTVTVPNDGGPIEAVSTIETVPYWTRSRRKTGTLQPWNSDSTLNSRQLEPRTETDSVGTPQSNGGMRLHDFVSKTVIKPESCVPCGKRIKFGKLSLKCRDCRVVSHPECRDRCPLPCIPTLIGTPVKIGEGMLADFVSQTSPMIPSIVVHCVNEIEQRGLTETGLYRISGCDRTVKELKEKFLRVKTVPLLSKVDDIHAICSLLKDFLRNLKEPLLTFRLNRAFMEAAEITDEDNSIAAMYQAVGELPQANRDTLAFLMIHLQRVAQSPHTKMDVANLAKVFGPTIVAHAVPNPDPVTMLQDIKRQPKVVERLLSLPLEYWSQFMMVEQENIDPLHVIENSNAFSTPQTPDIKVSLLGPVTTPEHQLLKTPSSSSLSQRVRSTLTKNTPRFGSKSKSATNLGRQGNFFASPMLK

Paired box protein Pax-8 = Paired box protein Pax-8 (Homo sapiens, UniProt Q06710); assay: inhibitors of PAX8-driven TPO luciferase reporter, dose response, RMG-I cells, cherry-pick (AID 687027); assay type: functional, cell-based;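 also: luciferase reporter driven by Pax8 target thyroperoxidase promoter measured by SteadyGlo luminescence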
Sequence of Paired box protein Pax-8 (Q06710 whole entry): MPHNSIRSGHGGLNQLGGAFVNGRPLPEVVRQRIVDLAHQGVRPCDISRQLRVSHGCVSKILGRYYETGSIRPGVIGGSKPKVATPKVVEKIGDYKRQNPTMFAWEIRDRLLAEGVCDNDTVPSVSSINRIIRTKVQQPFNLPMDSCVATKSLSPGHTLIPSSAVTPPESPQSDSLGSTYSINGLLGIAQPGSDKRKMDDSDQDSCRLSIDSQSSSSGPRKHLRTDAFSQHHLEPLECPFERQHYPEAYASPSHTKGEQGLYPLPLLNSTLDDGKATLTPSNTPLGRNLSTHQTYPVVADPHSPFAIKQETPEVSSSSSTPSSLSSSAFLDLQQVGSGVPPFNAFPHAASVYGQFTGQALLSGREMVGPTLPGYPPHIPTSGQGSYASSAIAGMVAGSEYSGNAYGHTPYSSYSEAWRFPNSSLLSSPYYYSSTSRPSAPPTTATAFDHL

[12] = NIH:OVCAR-3 ovarian cancer cell cytotoxicity, dose response, PAX8 inhibitor project, plate reader, dry powder samples (AID 743044); assay type: functional, cell-based
[13] = IGROV1 ovarian cancer cell cytotoxicity, dose response, PAX8 inhibitor project, plate reader, dry powder samples (AID 743043); assay type: functional, cell-based; details: IGROV-1
[14] = A2780 ovarian cancer cell cytotoxicity, dose response, cytotoxicity control, plate reader, dry powder samples (AID 743046); assay type: functional, cell-based
[15] = A375 melanoma cell cytotoxicity, dose response, counter-screen for MITF inhibitor project, CellTiter-Glo luminescence, dry powder, set 2 (AID 624489); assay type: functional, cell-based; details: A-375;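 also: actives are compounds lowering A375 viability meaning general cytotoxicity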
[16] = A375 melanoma cell viability loss, dose response, counter-screen for MITF inhibitor project, CellTiter-Glo luminescence, dry powder, set 4 (AID 624364); assay type: functional, cell-based; details: A-375;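 also: A375 melanoma cells are MITF independent so this is a counter screen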
[17] = HEK293 cell cytotoxicity, dose response, cytotoxicity control, plate reader, cherry-picked samples (AID 743446); assay type: functional, cell-based
[18] = MC4R antagonists, dose response, counter-screen for LGR2 antagonist project, cell-based, plate reader, cherry pick (AID 743444); assay type: functional;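 also: transfected HEK 293 cells stimulated with alpha-MSH peptide; potency of inhibitors of the alpha-MSH evoked signal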
[19] = HepG2 cell cytotoxicity, dose response, cytotoxicity control, plate reader, cherry-pick, antagonist series (AID 743416); assay type: functional, cell-based
[20] = A549 cell cytotoxicity, dose response, cytotoxicity control, plate reader, cherry-pick, antagonist series (AID 743412); assay type: functional, cell-based
[21] = LGR2 antagonists, dose response, cell-based, HEK293, CRE-luciferase reporter, cherry pick, set 2 (AID 743343); assay type: functional;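 also: transfected cells were stimulated with diluted bursicon conditioned medium after compound addition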
[22] = cytotoxicity toward Colo320 cells – cell-based, CellTiter-Glo luminescence, IC50, dose response (AID 1117334); assay type: functional; details: COLO 320
[23] = CellTiter-Glo luminescent dose response of DLD-1 viability loss (AID 1117352); assay type: functional
[24] = Concentration-dependent survival of SW480 colon cancer line, luminescence detection with CellTiter-Glo, half-maximal inhibitory concentration (AID 1117338); assay type: functional
[25] = cytotoxicity toward HCT116 cells – cell-based, CellTiter-Glo luminescence, IC50, dose response (AID 1117332); assay type: functional; details: HCT-116

CN1CCN(c2ncnc3c2cnn3C)CC1
AC50 [1]: 13.3 µM (active)

Clc1ccc(CSc2nc3cc[nH]cc-3n2)cc1
EC50 [2]: > 67.5 µM (inactive)

COc1cc(C(=O)NNC(=S)NC(=O)c2ccc(Cl)cc2)cc(OC)c1OC
EC50 [3]: 0.756 µM (active) | CC50 (Vero): > 25 µM (active) | EC50 (Streptococcus): 2.17 µM (active) | EC50 [4]: 0.822 µM (active) | IC50 [5]: > 122 µM (inactive)

CN(C)c1ccc(C(C#N)c2ccccc2)nn1 (stereo unspecified)
EC50 [2]: > 67.5 µM (inactive)

CCN(CC)C1CCN(c2nc3nonc3nc2NCCOC)C1 (stereo unspecified)
AC50 [1]: 14.4 µM (active)

CCOc1ccccc1C(=O)N[C@H](C(=O)Nc1nc2c(s1)CCCC2)C(C)C
EC50 [3]: 1.01 µM (active) | EC50 [6]: > 67.6 µM (inactive) | EC50 [7]: > 60 µM (inconclusive) | IC50 [8]: > 67.6 µM (inactive)

CN(C)c1ccc(Nc2nc(-c3cccnc3)cs2)cc1
IC50 (Large T antigen): 8.54 µM (active) | EC50 [2]: > 67.5 µM (inactive)

Cc1ccccc1N=Nc1c(O)[nH]c2ccccc12
EC50 (cells): > 67.5 µM (inactive) | EC50 [9]: > 67.5 µM (inactive)

Oc1ccc(Cl)cc1/C=N/c1ccc2c3c(cccc13)CC2
IC50 (H9c2): 9.38 µM (active) | IC50 [10]: > 50 µM (not active) | IC50 [11]: 12.9 µM (active)

COc1ccccc1S(=O)(=O)N(C)C[C@H]1Oc2cc(C#CCC3CCCC3)ccc2S(=O)(=O)N([C@@H](C)CO)C[C@@H]1C
AC50 (Paired box protein Pax-8): 7.59 µM (active) | AC50 [12]: 17.1 µM (active) | AC50 [13]: 62.2 µM (active) | AC50 [14]: 52.2 µM (active)

CCN1CCN(C2=C(Nc3ccccc3)C(=O)c3ccccc3C2=O)CC1
AC50 [15]: 25.5 µM (active) | AC50 [16]: 46.6 µM (active)

C[C@H]1CN([C@@H](C)CO)C(=O)Cc2cc(NS(=O)(=O)c3ccc(Cl)cc3)ccc2O[C@@H]1CN(C)Cc1ccc(Cl)c(Cl)c1
AC50 [17]: 19.6 µM (active) | AC50 [18]: 12.7 µM (active) | AC50 [19]: 11.3 µM (active) | AC50 [20]: 10.2 µM (active) | AC50 [21]: 20.4 µM (active)

O=C(NC1=C(N2CCOCC2)C(=O)c2ccccc2C1=O)c1ccc(Br)cc1
AC50 [15]: 28.9 µM (active) | AC50 [16]: > 70 µM (inactive)

Fc1cccc(Cl)c1/C=N/Nc1ccccn1
EC50 (cells): > 67.6 µM (inactive) | EC50 [9]: > 67.6 µM (inactive)

O=C(Nc1ccccc1)C(=O)c1c[nH]c2ccccc12
EC50 [6]: > 67.5 µM (inactive) | IC50 [8]: > 67.5 µM (inactive)

c1cnc2cc3c(cc2n1)[C@@H]1CNC[C@H]3C1 [VARENICLINE]
IC50 [22]: > 20 µM (inactive) | IC50 [23]: > 6.67 µM (inactive) | IC50 [24]: > 6.67 µM (inactive) | IC50 [25]: > 20 µM (inactive)
